The target in this assay is WDR5 (Homo sapiens, UniProt P61964). Put plainly: FP-based competitive binding assay. The settings on record: for times increase in binding affinity upon N-terminal acetylation: acetylated vs free amino group peptide; for times less potent than Ac-3mer: compared to Ac-3mer (Ac-ARA-NH2); for binding to WDR5: up to the concentrations tested.

Peptide text beside a SMILES is read from it.

On to Ac-ARTKQTA-NH2 [Ac-H3-7mer, Ac-ARTKQTA], for which the “times increase in binding affinity upon N-terminal acetylation” value (shortened to “times increase”) is recorded as above 10000. Take `COC(=O)[C@H](C)NC(=O)[C@H](CCCNC(=N)N)NC(=O)[C@H](C)NC(C)=O` [Δ2c, Ac-ARA-COOCH3] (Ac-Ala-Arg-Ala-OMe): the “times less potent than Ac-3mer” value was found to be 10. For the compound `CC(=O)N[C@@H](C)C(=O)N[C@@H](CCCNC(=N)N)C(=O)N[C@H](C(=O)N[C@@H](CCCCN)C(=O)N[C@@H](CCC(N)=O)C(=O)N[C@H](C(=O)N[C@@H](C)C(=O)N[C@@H](CCCNC(=N)N)C(=O)N[C@@H](CCCCN)C(=O)N[C@@H](CO)C(N)=O)[C@@H](C)O)[C@@H](C)O` [Ac-H3-10mer], the “times increase” value is recorded as above 10000.

For the compound `CC(=O)N[C@@H](C)C(=O)N[C@@H](CCCNC(=N)N)C(=O)N[C@@H](C)C(=O)N(C)C` [Δ2b, Ac-ARA-CONMe2] (Ac-Ala-Arg-Ala-NMe2), the “times less potent than Ac-3mer” value was found to be 50.

`CC(=O)N[C@@H](C)C(=O)N[C@@H](CCCNC(=N)N)C(=O)N[C@@H](C)C(=O)N[C@@H](CCC(=O)O)C(=O)N[C@H](C(=O)N[C@@H](Cc1c[nH]cn1)C(=O)N[C@@H](CC(C)C)C(=O)N[C@@H](CCCNC(=N)N)C(=O)N[C@@H](CCCCN)C(=O)N[C@@H](CO)C(N)=O)C(C)C` [Ac-10mer]: the “times more potent than the WIN peptide” value (Ki ratio vs WIN peptide) was determined as 50. Take `CC(=O)N[C@@H](C)C(=O)N[C@@H](CCCNC(=N)N)C(=O)N(C)[C@@H](C)C(N)=O` [Δ1, Ac-AR-(N-Me)A-NH2]: the “binding to WDR5” value is on record as “complete loss of its binding to WDR5”. As to `CC(=O)N[C@@H](C)C(=O)N[C@@H](CCCNC(=N)N)C(=O)N[C@H](C(N)=O)[C@@H](C)O` [Ac-H3-3mer, Ac-ART-NH2] (Ac-Ala-Arg-Thr-NH2), the “times increase” value is on record as 1500. For the setting “compared to Ac-ARA-NH2”, the “times more potent than Ac-ARA-NH2” value is 6.

With “Ac-ARAEVHL-NH2 (N-terminus and C-terminus assumed) [Ac-7mer]”, where the note is “compared to Ac-10mer”, the “fold decrease in binding affinity vs Ac-10mer” value came to 10.

In the case of `C[C@H](N)C(=O)N[C@@H](CCCNC(=N)N)C(=O)N[C@@H](C)C(N)=O` [H2N-3mer, H2N-ARA-NH2] (H-Ala-Arg-Ala-NH2), the “binding to WDR5” value was “does not bind to WDR5”.
